Test results published in patent US20170027896A1, “METHODS AND COMPOSITIONS FOR THE TREATMENT OF VASCULAR MALFORMATION” (IFOM - FONDAZIONE ISTITUTO FIRC DI ONCOLOGIA MOLECOLARE, priority 2014, published 2017).
Entries after “also recorded” stand apart in the source; their conditions may differ.

What was measured:
[1] = tested on: CCM3-knockout endothelial cell line; experiment: rtPCR of b-catenin target gene and progenitor/EndMT markers in CCM3-knockout endothelial cell line; format: cell-based, mouse; details: 48 h; 135 mM sulindac sulfide, 125 mM sulindac sulfone, 200 mM silibinin, 250 mM salinomycin
Experimental: In some experiments, endothelial cell lines from the lungs of CCM3-flox/flox mice (8-10 weeks old) were immortalized in culture through retroviral expression of polyoma middle T gene^60. […] These cells were then maintained in culture for up to 25 passages without detectable changes in the effects of this CCM3 ablation.
Drugs were added to confluent cells for 48 h before the indicated assays. The final concentrations used were: […] (all from Sigma-Aldrich). As all of these were dissolved in DMSO, control treatment (vehicle) was 0.1% DMSO final concentration, as for drug treatment.
RNA extraction was performed with RNeasy kits (74106; […]). The RNA (1 μg) was reverse transcribed with random hexamers (High Capacity cDNA Archive kits; Applied Biosystems). The cDNA was amplified with TaqMan gene expression assays (Applied Biosystems) using a 7900 HT thermocycler (ABI/Prism). For each sample, the expression levels were determined with the comparative threshold cycle (Ct) method, and normalized to the housekeeping genes encoding 18S and glyceraldehyde-3-phosphate dehydrogenase (GAPDH). For amplification, the following probes (Applied Biosystems) that have been validated to recognize the mouse transcripts in rtPCR were used: Axin2, Nkd1, Lef1, ccnd1, cMyc-Klf4, Ly6a, S100a4, Id1, Cdh2, Acta2, CD44. The probes to identify the CCM3 mRNA transcript were custom designed, as: forward, […] (SEQ ID No. 12); reverse, GCTCTGGCCGCTCAATCA (SEQ ID No. 13); reporter sequence, […] (SEQ ID No. 14).

[2] = tested on: co-immunoprecipitation complex of b-catenin and VE-cadherin; experiment: Co-immunoprecipitation and Western blotting of b-catenin and VE-cadherin in CCM3-knockout endothelial line; format: cell-based, mouse; details: association reduced by 35% in vehicle-KO
Experimental: Drugs were added to confluent cells for 48 h before the indicated assays. The final concentrations used were: […] (all from Sigma-Aldrich). As all of these were dissolved in DMSO, control treatment (vehicle) was 0.1% DMSO final concentration, as for drug treatment. Standard procedures were used to extract and analyze the protein content by Western blotting and immunoprecipitation^46. Nuclear fractionation was as described previously^62.

## CSc1ccc(/C=C2/C(C)=C(CC(=O)O)c3cc(F)ccc32)cc1 [sulindac sulfide, (Z)-5-Fluoro-2-methyl-1-[4-(methylthio)benzylidene]indene-3-acetic acid]
[1]
  inhibition of transcription of Axin2, Klf4 and S100a4 (rtPCR): greatest inhibition; also recorded: most effective
[2]
  association between b-catenin and VE-cadherin (b-catenin/VE-cadherin ratio): restored to the level observed in the wild-type cells
